In PubChem BioAssay AID248 (DTP/NCI, 2004):
Toxic doses and inconclusive results are not listed. Rule as the data show it: active = T/C of 150% or more; inactive = T/C below 125%. Square brackets hold non-standard residues; d marks the D form. Peptide text beside a SMILES is read from it. * marks the point of attachment. Cbz = O=C(OCc1ccccc1)*; OBn = c1ccc(CO*)cc1; Sar = CNCC(=O)O

Test system: L1210 leukemia ip in BDF1 mice, survival T/C
Test: NCI In Vivo Anticancer Drug Screen. Data for tumor model L1210 Leukemia (intraperitoneal) in B6D2F1 (BDF1) mice
Details: endpoint: mean survival time, higher = longer survival
Outline: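 Tumor cells were implanted, animals were treated, and survival was followed. The result divides the treated measurement by the vehicle-control measurement.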

[1] = dose: 100.0 mg/kg/injection, schedule: Q04DX003 (ip), vehicle: saline with Tween-80
[2] = dose: 200.0 mg/kg/injection, schedule: Q04DX003 (ip), vehicle: saline with Tween-80
[3] = dose: 100.0 mg/kg/injection, schedule: Q01DX009 (ip), vehicle: Klucel (hydroxypropylcellulose) (HPC)
[4] = dose: 100.0 mg/kg/injection, schedule: Q04DX003 (ip), vehicle: Klucel (hydroxypropylcellulose) (HPC)
[5] = dose: 200.0 mg/kg/injection, schedule: Q01DX009 (ip), vehicle: Klucel (hydroxypropylcellulose) (HPC)
[6] = dose: 200.0 mg/kg/injection, schedule: Q04DX003 (ip), vehicle: Klucel (hydroxypropylcellulose) (HPC)
[7] = dose: 400.0 mg/kg/injection, schedule: Q01DX009 (ip), vehicle: Klucel (hydroxypropylcellulose) (HPC)
[8] = dose: 400.0 mg/kg/injection, schedule: Q04DX003 (ip), vehicle: Klucel (hydroxypropylcellulose) (HPC)
[9] = dose: 100.0 mg/kg/injection, schedule: Q01DX001 (ip), vehicle: Klucel (hydroxypropylcellulose) (HPC)
[10] = dose: 100.0 mg/kg/injection, schedule: Q01DX009 (ip), vehicle: saline with Tween-80
[11] = dose: 200.0 mg/kg/injection, schedule: Q01DX009 (ip), vehicle: saline with Tween-80
[12] = dose: 100.0 mg/kg/injection, schedule: Q01DX009 (ip), vehicle: saline
[13] = dose: 200.0 mg/kg/injection, schedule: Q01DX009 (ip), vehicle: saline
[14] = dose: 100.0 mg/kg/injection, schedule: Q01DX001 (ip), vehicle: saline
[15] = dose: 200.0 mg/kg/injection, schedule: Q01DX001 (ip), vehicle: saline
[16] = dose: 400.0 mg/kg/injection, schedule: Q01DX001 (ip), vehicle: saline
[17] = dose: 50.0 mg/kg/injection, schedule: Q01DX001 (ip), vehicle: saline
[18] = dose: 100.0 mg/kg/injection, schedule: Q01DX001 (ip), vehicle: carboxymethylcellulose (CMC)
[19] = dose: 200.0 mg/kg/injection, schedule: Q01DX001 (ip), vehicle: carboxymethylcellulose (CMC)
[20] = dose: 400.0 mg/kg/injection, schedule: Q01DX001 (ip), vehicle: carboxymethylcellulose (CMC)
[21] = dose: 400.0 mg/kg/injection, schedule: Q01DX009 (ip), vehicle: saline with Tween-80

Measured: T/C

CN(CC(=O)OCc1ccccc1)C(=O)CNC(=O)OCc1ccccc1 (Cbz-Gly-[Sar]-OBn)
inactive: [1] 95 % of control | [2] 98 % of control | dose: 400.0 mg/kg/injection, schedule: Q04DX003 (ip), vehicle: saline with Tween-80 98 % of control

CCc1ccccc1N=Nc1sc(N)nc1C
inactive: dose: 75.0 mg/kg/injection, schedule: Q01DX001 (ip), vehicle: saline 94 % of control | dose: 150.0 mg/kg/injection, schedule: Q01DX001 (ip), vehicle: saline 100 % of control | dose: 300.0 mg/kg/injection, schedule: Q01DX001 (ip), vehicle: saline 97 % of control

CN(C)c1ccccc1C(=O)NNC(=S)Nc1ccccc1
inactive: [3] 103 % of control | [4] 96 % of control | [5] 96 % of control | [6] 93 % of control | [7] 93 % of control | [8] 94 % of control

O=C1CC(N2CCOCC2)c2ccccc21 (centres undefined)
inactive: [9] 98 % of control | [3] 102 % of control | dose: 200.0 mg/kg/injection, schedule: Q01DX001 (ip), vehicle: Klucel (hydroxypropylcellulose) (HPC) 92 % of control | [5] 93 % of control | dose: 400.0 mg/kg/injection, schedule: Q01DX001 (ip), vehicle: Klucel (hydroxypropylcellulose) (HPC) 92 % of control | [7] 91 % of control

C[Si](C)(C)Cc1ccccc1F
inactive: dose: 25.6 mg/kg/injection, schedule: Q04DX002 (ip), vehicle: saline with Tween-80 101 % of control | dose: 64.0 mg/kg/injection, schedule: Q04DX002 (ip), vehicle: saline with Tween-80 93 % of control | dose: 160.0 mg/kg/injection, schedule: Q04DX002 (ip), vehicle: saline with Tween-80 104 % of control | dose: 400.0 mg/kg/injection, schedule: Q04DX002 (ip), vehicle: saline with Tween-80 90 % of control

COC(=O)NC1c2ccccc2CCC1I (centres undefined)
inactive: dose: 50.0 mg/kg/injection, schedule: Q01DX009 (ip), vehicle: saline with Tween-80 94 % of control | [10] 90 % of control | [11] 92 % of control

O=C(Nc1ccc([N+](=O)[O-])cc1O)c1ccccc1
inactive: [1] 92 % of control | [2] 92 % of control

O=C1OC(c2ccc([N+](=O)[O-])cc2)=N/C1=C\c1cccc([N+](=O)[O-])c1
inactive: dose: 100.0 mg/kg/injection, schedule: Q01DX009 (ip), vehicle: other 96 % of control | dose: 200.0 mg/kg/injection, schedule: Q01DX009 (ip), vehicle: other 100 % of control | dose: 400.0 mg/kg/injection, schedule: Q01DX009 (ip), vehicle: other 106 % of control

Cc1ccccc1Nc1c(C)cccc1C(=O)O
inactive: [12] 100 % of control | [13] 92 % of control | dose: 400.0 mg/kg/injection, schedule: Q01DX009 (ip), vehicle: saline 86 % of control

O=C(O)c1cccc(Br)c1.[Ni]
inactive: dose: 25.0 mg/kg/injection, schedule: Q04DX002 (ip), vehicle: Klucel (hydroxypropylcellulose) (HPC) 100 % of control | dose: 50.0 mg/kg/injection, schedule: Q04DX002 (ip), vehicle: Klucel (hydroxypropylcellulose) (HPC) 106 % of control

Cc1ccnc(-n2c(N)cc(=O)[nH]c2=S)c1
inactive: dose: 100.0 mg/kg/injection, schedule: Q04DX002 (ip), vehicle: saline 102 % of control | dose: 200.0 mg/kg/injection, schedule: Q04DX002 (ip), vehicle: saline 107 % of control | dose: 400.0 mg/kg/injection, schedule: Q04DX002 (ip), vehicle: saline 107 % of control

Nc1nc(N)c2nc(CNc3ccccc3)cnc2n1
inactive: dose: 20.0 mg/kg/injection, schedule: Q01DX009 (ip), vehicle: Klucel (hydroxypropylcellulose) (HPC) 96 % of control | dose: 40.0 mg/kg/injection, schedule: Q01DX009 (ip), vehicle: Klucel (hydroxypropylcellulose) (HPC) 105 % of control | dose: 80.0 mg/kg/injection, schedule: Q01DX009 (ip), vehicle: Klucel (hydroxypropylcellulose) (HPC) 96 % of control

CCCCOC(=O)NC/C(Br)=C/Br
inactive: [3] 96 % of control | [4] 100 % of control | [5] 94 % of control | [6] 96 % of control | [7] 91 % of control | [8] 105 % of control

c1ccc2c(c1)CCCN2
inactive: [14] 99 % of control | [15] 89 % of control | [16] 89 % of control

CC(C1CCCCC1)C(C#N)C(=O)NC(N)=O (centres undefined)
inactive: [17] 97 % of control | [14] 92 % of control | [15] 95 % of control | [16] 90 % of control

ClCC1COC(CCl)O1 (centres undefined)
inactive: dose: 55.0 mg/kg/injection, schedule: Q01DX Z (ip), vehicle: saline 101 % of control | dose: 83.0 mg/kg/injection, schedule: Q01DX Z (ip), vehicle: saline 95 % of control | dose: 125.0 mg/kg/injection, schedule: Q01DX Z (ip), vehicle: saline 97 % of control

CCCCOC(=O)c1ccc(C)s1
inactive: [18] 95 % of control | [19] 101 % of control | [20] 95 % of control

ClCCN(CCCl)c1ccc(-c2csc(Cc3ccccc3)n2)cc1
inactive: [18] 93 % of control | [19] 92 % of control | [20] 93 % of control

O=c1[nH]c2cnccc2c(=O)n1O
inactive: [10] 102 % of control | [11] 93 % of control | [21] 104 % of control

CC(C)C(C=O)(CCN1CCCCC1)c1cccc2ccccc12 (centres undefined)
inactive: dose: 25.0 mg/kg/injection, schedule: Q04DX002 (ip), vehicle: saline with Tween-80 98 % of control | dose: 50.0 mg/kg/injection, schedule: Q04DX002 (ip), vehicle: saline with Tween-80 98 % of control | dose: 100.0 mg/kg/injection, schedule: Q04DX002 (ip), vehicle: saline with Tween-80 88 % of control

COc1ccc2ncc(CO)cc2c1
inactive: dose: 100.0 mg/kg/injection, schedule: Q04DX003 (ip), vehicle: saline 96 % of control | dose: 200.0 mg/kg/injection, schedule: Q04DX003 (ip), vehicle: saline 98 % of control | dose: 400.0 mg/kg/injection, schedule: Q04DX003 (ip), vehicle: saline 112 % of control

CCCCOP(=O)(CCl)OCCCC
inactive: [3] 98 % of control | [4] 97 % of control | [5] 103 % of control | [6] 97 % of control | [8] 95 % of control

CCN(CC)c1ccc2nc3ccc(N(CC)CC)cc3[n+](-c3ccccc3)c2c1
inactive: dose: 3.0 mg/kg/injection, schedule: Q01DX009 (ip), vehicle: saline 111 % of control | dose: 6.0 mg/kg/injection, schedule: Q01DX009 (ip), vehicle: saline 115 % of control

O=c1[nH]c2cnn(-c3ccccc3)c2c(=O)n1OS(=O)(=O)c1ccccc1
inactive: dose: 5.0 mg/kg/injection, schedule: Q01DX001 (ip), vehicle: saline 103 % of control | dose: 10.0 mg/kg/injection, schedule: Q01DX001 (ip), vehicle: saline 100 % of control | dose: 20.0 mg/kg/injection, schedule: Q01DX001 (ip), vehicle: saline 100 % of control | dose: 40.0 mg/kg/injection, schedule: Q01DX001 (ip), vehicle: saline 97 % of control | [17] 109 % of control | dose: 80.0 mg/kg/injection, schedule: Q01DX001 (ip), vehicle: saline 97 % of control | [14] 100 % of control | [15] 97 % of control | [16] 103 % of control

CCOC(=O)Nc1ccc(OC(=O)Oc2ccc(NC(=O)OCC)cc2)cc1
inactive: [14] 97 % of control | [15] 97 % of control | [16] 86 % of control

CCN(CC)C1=C(Cl)C(=O)c2ccccc2C1=O
inactive: [10] 93 % of control | [11] 93 % of control

COC(=O)C(Br)C(C)OC (centres undefined)
inactive: [12] 96 % of control | [13] 101 % of control

O=c1cc2ccccc2c(O)[nH]1
inactive: dose: 25.0 mg/kg/injection, schedule: Q01DX001 (ip), vehicle: saline 107 % of control | [17] 111 % of control | [9] 100 % of control | [14] 114 % of control

NCCc1cc(O)c(O)c(O)c1
inactive: dose: 50.0 mg/kg/injection, schedule: Q01DX009 (ip), vehicle: saline 104 % of control | [12] 113 % of control

COc1ccc(C(O)(c2ccccc2)C(O)c2ccccc2)cc1 (centres undefined)
inactive: [10] 98 % of control | [11] 88 % of control | [21] 86 % of control
